The values that follow come from patent publication US4176189A, “Insecticidal and acaricidal hydantoin N-methylol esters” (Sumitomo Chemical Company, Limited, priority 1977, dated 1979).

Read-outs that look alike come from different tables or passages of the source.

What all share (format): in vivo
The subject of experiment [1] is housefly female adults (Musca domestica). Description: Housefly female adults on treated filter paper in polyethylene cup, mortality after 48 hours (Experimental Example 1). On the procedure:
Ten percent emulsifiable concentrates were prepared as in the Preparation example 3.
At the bottom of a polyethylene cup of 5.5 cm in diameter was placed a filter paper of the same size. 0.75 Ml of a 200-fold aqueous dilute solution of each emulsifiable concentrate (corresponding to 500 ppm) was dropped on the filter paper, and 30 mg of sucrose as a food was uniformly placed. Ten housefly female adults (Musca domestica) were liberated in the cup which was then covered with a lid. After 48 hours, the dead and alive were examined to obtain mortality (4 replications).

The subject of experiment [2] is northern house mosquito female adults (Culex pipiens pallens). Description: Oil spray in (70 cm)^3 glass chamber, northern house mosquito female adults, KT50 and mortality (Experimental Example 2). To be noted: for mortality at 0.1 %: Culex pipiens. The procedure:
(§1) 0.1 Part of each of the present compounds was dissolved in kerosene and made up to 100 parts with kerosene. Thus, the oil spray of each compound was obtained. Ten northern house mosquito female adults (Culex pipiens pallens) and 10 housefly adults (Musca domestica) were liberated in a (70 cm)^3 glass chamber. 0.7 ml of the oil spray was applied and the number of knocked down insects was counted with the lapse of time. The value of KT50 was obtained from the mean knock-down ratio of three replications according to Finney's graphic method. After 10 minutes, the knocked down insects were collected and transferred to a recovery container and fed with a 5% sugar solution. After 24 hours, the dead and alive were examined.

Experiment [3] relates to housefly adults (Musca domestica). The experiment can be described thus: Oil spray in (70 cm)^3 glass chamber, housefly adults, KT50 and mortality (Experimental Example 2). The note with it: for mortality at 0.1 %: Musca domestica. On the procedure:
as §1

Experiment [4] concerns adult German cockroaches (Blattella germanica). Description: Flushing out of German cockroaches from shelter (Experimental Example 8). The note with it: 0.7 ml of 0.1% oil spray. On the procedure:
Ten adult German cockroaches (Blattella germanica) were liberated in a plywood-made trigonal prism like shelter with diet and water. The shelter containing cockroaches was made stand opening upward in a glass chamber (70 cm)^3, and 0.7 ml of 0.1% oil spray of each compound was applied to the chamber. The number of flushed out insects was counted with the lapse of time.

For experiment [5], the system named is Carmine mite (Tetranychus cinnabarinus). The experiment can be described thus: Carmine mite on potted kidney bean, damage after 10 days (Experimental Example 12). To be noted: 200-fold aqueous dilution of emulsifiable concentrate of Preparation example 3, 10 ml/pot. On the procedure:
Carmine mite female adults (Tetranychus cinnabarinus) were made parasitic on leaves of the potted kidney bean (primordial leaf stage) which had elapsed 9 days after sowing, at a rate of 10-15/leaf, and bred at 27° C. for a week in a constant temperature room. […] At this time, a 200-fold aqueous dilute solution of each of the emulsifiable concentrates formulated from the present compounds (2), (6), (8), (9) and (13) according to Preparation example 3 was sprayed at a rate of 10 ml/pot by means of a turn table.

Experiment [6] relates to northern house mosquito female adults (Culex pipiens pallens). Description: Oil spray in (70 cm)^3 glass chamber, knock down of mosquitoes at 10 minutes (Experimental Example 3). The note with it: oil sprays of Preparation example 1 (0.2 part in 100), 0.7 ml, 10 minutes after spraying, read-out: KD%. From the text: Ten northern house mosquito female adults (Culex pipiens pallens) were liberated in a (70 cm)^3 glass chamber.

The mark [7] stands for this setting: northern house mosquito female adult, 0.1% oil spray, 0.7 ml.
The mark [8] stands for this setting: housefly adult, 0.1% oil spray, 0.7 ml.
[9] abbreviates: 200-fold aqueous dilution of emulsifiable concentrate (500 ppm), 48 hours, housefly female adults, read-out: Mortality.

Consider `C#CCN1CC(=O)N(COC(=O)C2C(C=C(Cl)Cl)C2(C)C)C1=O` (racemic) [Present compound (1) (dl-cis,trans isomer), 1-Propargyl-3-hydantoinylmethyl 2,2-dimethyl-3-(2,2-dichlorovinyl)cyclopropanecarboxylate], for which the mortality (usually the share of the test organisms that died) at 500 µg/mL in experiment [1] (48 h) amounted to 100%. The mortality at 0.1 % in experiment [2] (24 h) is 90%; in experiment [3] (24 h), 60%. In addition, the values for the KT50 in experiment [2] (setting [7]) and in experiment [3] (setting [8]) were 69 s and 96 s, respectively. Also, the Flushing out in experiment [4] (38") is given as 35%; in experiment [4] (75") it was 65%; in experiment [4] (150") it was 75%; in experiment [4] (300") it was 85%; in experiment [4] (600"), 95%.
Take `C#CCN1CC(=O)N(COC(=O)[C@@H]2[C@@H](C=C3CCCC3)C2(C)C)C1=O` (relative stereo) [Present compound (8), 1-Propargyl-3-hydantoinylmethyl 2,2-dimethyl-3-cyclopentylidenemethylcyclopropanecarboxylate]: the mortality at 500 µg/mL in experiment [1] (48 h) was found to be 100%. The mortality at 0.1 % was found to be 95% in experiment [2] (24 h) and 25% in experiment [3] (24 h). For the same molecule, the results for the KT50 in experiment [2] (setting [7]) and in experiment [3] (setting [8]) were 75 s and 150 s, respectively. Moreover, the “damage of kidney bean by the mites” value in experiment [5] is “hardly any damage was observed”.
`C#CCN1CC(=O)N(COC(=O)[C@@H]2[C@@H](C=C(C)C=C)C2(C)C)C1=O` (relative stereo) [Present compound (10), 1-Propargyl-3-hydantoinylmethyl 2,2-dimethyl-3-(2-methylbutadienyl)cyclopropanecarboxylate] yielded a mortality at 500 µg/mL in experiment [1] (48 h) of 95%. The pest or weed control at 0.2 % in experiment [6] was 90%.
The molecule `C=CCN1CC(=O)N(COC(=O)C2C(C=C(Cl)Cl)C2(C)C)C1=O` (stereo not shown) [Present compound (2), 1-Allyl-3-hydantoinylmethyl 2,2-dimethyl-3-(2,2-dichlorovinyl)-cyclopropanecarboxylate] gave a mortality at 500 µg/mL in experiment [1] (48 h) of 100%. Also, the pest or weed control at 0.2 % in experiment [6] is 100%. Also, the “damage of kidney bean by the mites” value in experiment [5] is “hardly any damage was observed”.
For the molecule `CCCN1CC(=O)N(COC(=O)C2C(C=C(Cl)Cl)C2(C)C)C1=O` (stereo not shown) [Present compound (3), 1-Propyl-3-hydantoinylmethyl 2,2-dimethyl-3-(2,2-dichlorovinyl)cyclopropanecarboxylate], in experiment [6], the pest or weed control at 0.2 % stood at 100%. Besides, the Flushing out in experiment [4] (38") worked out at 30%; in experiment [4] (75"), 45%; in experiment [4] (150"), 45%; in experiment [4] (300"), 50%; in experiment [4] (600"), 65%.
`C=CCN1C(=O)CN(COC(=O)C2C(C=C(Cl)Cl)C2(C)C)C1=O` (stereo not shown) [Present compound (5), 3-Allyl-1-hydantoinylmethyl 2,2-dimethyl-3-(2,2-dichlorovinyl)-cyclopropanecarboxylate] returned a mortality at 500 µg/mL in experiment [1] (48 h) of 100%. Further, the pest or weed control at 0.2 % in experiment [6] amounted to 100%.
In turn, `C#CCN1CC(=O)N(COC(=O)[C@@H]2[C@@H](C=C(F)F)C2(C)C)C1=O` [Present compound (6)] gave a mortality at 500 µg/mL in experiment [1] (48 h) of 100%. The results for the mortality at 0.1 % in experiment [2] (24 h) and in experiment [3] (24 h) were 100% and 70%, respectively. For the same molecule, the KT50 in experiment [2] (setting [7]) was found to be 19 s; in experiment [3] (setting [8]), 46 s. The Flushing out was determined as 47% in experiment [4] (38"); 74% in experiment [4] (75"); 79% in experiment [4] (150"); 79% in experiment [4] (300"); 100% in experiment [4] (600"). Also, the “damage of kidney bean by the mites” value in experiment [5] is given as “hardly any damage was observed”.
With `C#CCN1CC(=O)N(COC(=O)C2C(C)(C)C2(C)C)C1=O` [Present compound (9), 1-Propargyl-3-hydantoinylmethyl 2,2,3,3-tetramethylcyclopropanecarboxylate], the mortality at 500 µg/mL in experiment [1] (setting [9]) stood at 100%. The mortality at 0.1 % is 95% in experiment [2] (northern house mosquito female adult, 0.1% oil spray, 0.7 ml, after 24 hours, read-out: Mortality) and 20% in experiment [3] (housefly adult, 0.1% oil spray, 0.7 ml, after 24 hours, read-out: Mortality). Further, the results for the KT50 in experiment [2] (setting [7]) and in experiment [3] (setting [8]) were 35 s and 150 s, respectively. For the same molecule, the Flushing out was found to be 15% in experiment [4] (38"); 55% in experiment [4] (75"); 60% in experiment [4] (150"); 70% in experiment [4] (300"); 80% in experiment [4] (600"). Also, the “damage of kidney bean by the mites” value in experiment [5] is “hardly any damage was observed”.
As to `C#CCN1CC(=O)N(COC(=O)[C@@H]2[C@@H](C=NOC)C2(C)C)C1=O` [Present compound (12), 1-Propargyl-3-hydantoinylmethyl 2,2-dimethyl-3-methoxyiminomethylcyclopropanecarboxylate], in experiment [6], the pest or weed control at 0.2 % turned out to be 100%.
For `C#CCN1CC(=O)N(COC(=O)C(c2ccc(Cl)cc2)C(C)C)C1=O` (stereo not drawn) [Present compound (13), 1-Propargyl-3-hydantoinylmethyl α-(4-chlorophenyl)isovalerate], the mortality at 500 µg/mL in experiment [1] (setting [9]) amounted to 100%. The pest or weed control at 0.2 % in experiment [6] stood at 90%. Further, the “damage of kidney bean by the mites” value in experiment [5] is reported as “hardly any damage was observed”.
Consider `C#CCN1CC(=O)N(COC(=O)C(c2cccc(Cl)c2)C(C)C)C1=O` (stereo not drawn) [Present compound (14), 1-Propargyl-3-hydantoinylmethyl α-(3-chlorophenyl)isovalerate], for which, in experiment [1] (setting [9]), the mortality at 500 µg/mL was found to be 100%. For the same molecule, in experiment [6], the pest or weed control at 0.2 % stood at 85%.
For `C#CCN1CC(=O)N(COC(=O)C(c2ccc(C)cc2)C(C)C)C1=O` (stereo not drawn) [Present compound (15), 1-Propargyl-3-hydantoinylmethyl α-(4-methylphenyl)isovalerate] the same measures were 90% and 90%.
For `C#CCN1CC(=O)N(COC(=O)C(c2ccc3c(c2)OCO3)C(C)C)C1=O` (stereo not drawn) [Present compound (16), 1-Propargyl-3-hydantoinylmethyl α-(3,4-methylenedioxyphenyl)isovalerate] the same measures were 90% and 100%.
For the molecule `C=CCN1CC(=O)N(COC(=O)C(c2ccc(Br)cc2)C(C)C)C1=O` (stereo not drawn) [Present compound (18), 1-Allyl-3-hydantoinylmethyl α-(4-bromophenyl)isovalerate], the mortality at 500 µg/mL in experiment [1] (setting [9]) came out at 100%. In addition, in experiment [6], the pest or weed control at 0.2 % was 90%.
As for `C#CCN1CC(=O)N(COC(=O)C(c2ccc(Cl)c(Cl)c2)C(C)C)C1=O` (stereo not drawn) [Present compound (19), 1-Propargyl-3-hydantoinylmethyl α-(3,4-dichlorophenyl)isovalerate], in experiment [6], the pest or weed control at 0.2 % worked out at 85%.
The same measure, in the same setting: the same measure for `C=CCN1CC(=O)N(COC(=O)C(c2ccc(Cl)cc2)C(C)C)C1=O` (stereo not drawn) [Present compound (20), 1-Allyl-3-hydantoinylmethyl α-(4-chlorophenyl)isovalerate]: 85%.
For `C#CCN1C(=O)CN(COC(=O)C(c2ccc(F)cc2)C(C)C)C1=O` (stereo not drawn) [Present compound (21), 3-Propargyl-1-hydantoinylmethyl α-(4-fluorophenyl)isovalerate], the mortality at 500 µg/mL in experiment [1] (setting [9]) came to 90%. In addition, in experiment [6], the pest or weed control at 0.2 % amounted to 90%.
For the molecule `C#CCN1C(=O)N(COC(=O)C2C(C=C(C)C)C2(C)C)C(=O)C1C` (stereo not shown) [Present compound (23), 1-Propargyl-5-methyl-3-hydantoinylmethyl chrysanthemate], the pest or weed control at 0.2 % in experiment [6] is 100%.
Still for that read-out and setting: the same measure for `C#CCN1C(=O)N(COC(=O)C2C(C=C(Cl)Cl)C2(C)C)C(=O)C1CC` (stereo not shown) [Present compound (24), 1-Propargyl-5-ethyl-3-hydantoinylmethyl 2,2-dimethyl-3-(2,2-dichlorovinyl)cyclopropanecarboxylate]: 85%.
Still for that read-out and setting: the same measure for `CC(C)=CC1C(C(=O)OCc2coc(Cc3ccccc3)c2)C1(C)C` (stereo not shown) [Resmethrin, 5-benzyl-3-furylmethyl chrysanthemate, reference compound]: 50%.
